Test results from patent US7285618B1, “Polypeptides having neutrophil stimulating activity” (Japan Tobacco Inc., priority 2000, dated 2007).
Like-named read-outs stand apart in the source and are kept apart here. Where no end group is shown, it is not given here.

Columns and labels:
HL60 cells [1] = format: cell-based, human
HL60 cells [2] = format: cell-based, human; remark: listed apart in the source
Method: Cells were cultivated following the method as described in Example 4, except that the RPMI-1640 medium containing contained 15% of FCS, and that in order to differentiate the HL60 cells into neutrophil-like cells, a cell suspension was prepared such that the cell density in the flask would be 0.5×10^6 cells/ml at the time of addition of db-cAMP (final concentration, 0.5 mM). The β-HA secretion promoting activities of COSP-1 and fMLP were measured 24, 48 and 72 hours after the differentiation.

[3] = system: differentiated HL60 cells; assay: Migration promoting activity (Chemotaxis Cells), differentiated HL60 cells; format: cell-based, human
Method: The migration promoting activity of each of the polypeptides of interest was measured using Chemotaxis Cells (Kurabo) as follows: The differentiated HL60 cells or undifferentiated HL60 cells were washed three times with ice-cooled HBHS and a cell suspension was prepared at a cell density of 4×10^6 cells/ml. The cell suspension was incubated at 37° C. for 10 minutes; thereafter, 500 μl of the cell suspension was transferred to Chemotaxis Cells (2×10^6 cells/Cell), which were put on a micro-well plate filled with pre-heated (37° C.) HBHS containing 1 ml of polypeptide and incubation was performed at 37° C. for 1 hour. Then, the Chemotaxis Cells were removed from the plate and the number of cells that had migrated in each well was counted.
Migration promoting activity was expressed by a chemotaxis index, or the number of cells that migrated upon stimulation was divided by the number of cells migrated without stimuli.
The activity of the human homologues of COSP-1 and fCyt b (1-15) for promoting β-HA secretion and migration promoting activities were measured following the methods described in Examples 4 and 5, respectively. The activity for β-HA secretion was expressed by the percentage for the maximum amount of secretion upon stimulation with 10 μM of fMLP, whereas the activity for migration was expressed by a chemotaxis index, i.e., the ratio of the number of stimulated migrating cells to that of unstimulated migrating cells.

human neutrophils = assay: β-HA secretion from human neutrophils; format: cell-based; conditions: for β-HA secretion from neutrophil cells (%/total): human neutrophils; for secretion of β-HA from human neutrophils: stimulation with 10 μM
Method: b. Preparation of Human Leukocytes
Thirty milliliters of human peripheral blood (containing 500 units of heparin sodium) was plated on 5 ml of Lymphocepal I in each of 4 centrifugal tubes and spun down (400 g, 30 min) at room temperature. After spinning, the monocytes and lymphocytes forming a turbid layer at the interface between the plasma and Lymphocepal I were carefully taken to be removed. […] The Percoll layer containing neutrophils was carefully taken and washed with physiological saline. Then, it was replaced by a 0.2% NaCl solution and about 30 seconds later, an equal amount of 1.6% NaCl aqueous solution was added; this procedure was repeated twice, whereby the left erythrocytes were lysed and neutrophils were isolated.
The purities of these monocyte-lymphocyte mixed cells and neutrophils were assayed by analysis with a flow cytometer. Propidium iodide was added to the cell suspension at a final concentration of 100 ng/ml in order to stain dead cells. Using a flow cytometer, forward scatter intensity and side scatter intensity were measured on a linear scale only for the negative cells (living cells) in the cell suspension for the propidium iodide-staining. The results were processed by CellQuest software and represented as a dot plot of forward scatter intensity (X-axis) and side scatter intensity (Y-axis). The purify of monocycle-lymphocyte mixed cells were 84% and that of the neutrophils were 83%. […]
c. Stimulation of the Cell […]
d. Measuring β-HA Enzyme Activity
The amount of β-HA secreted into the reaction supernatant was determined by measuring the absorbance at 415 nm of p-nitrophenol that was generated by an enzymatic reaction involving p-nitrophenyl N-acetyl-β-D-glucosaminide as a substrate. To be specific, 90 μl of the reaction supernatant was transferred to a 96-well Immuno plate (Nunc) and 60 μl of a substrate solution (10 mM p-nitrophenyl N-acetyl-β-D-glucosaminide/40 mM citrate, 70 mM Na2HPO4, pH 4.5) was added to initiate an enzymatic reaction. Following a 1-hr reaction at 37° C., 100 μl of a reaction quencher (400 mM glycine, pH 10.7) was added to stop the reaction and the absorbance at 415 nm was measured. As a control, cells were treated with Triton X-100 at a final concentration of 0.05% and the amount of β-HA in the supernatant was measured. As another control, the amount of β-HA secreted from cells upon stimulation with fMLP at a final concentration of 10 μM was measured.

[4] = system: undifferentiated HL60 cells; assay: Intracellular Ca2+ concentration (fura-2), undifferentiated HL60 cells; format: cell-based, human
Method: The differentiated HL60 cells or undifferentiated HL60 cells were washed twice with a Hepes-Na solution (140 mM NaCl, 4 mM KCl, 1 mM NaH2PO4, 1 mM MgCl2, 1.25 mM CaCl2, 5 mM Hepes, 11 mM glucose, 0.2% BSA, pH 7.4). Then, Ca^2+ sensitive fluorescence reagent, fura-2/AM, was added to the cell suspension (4 ml: final concentration, 4 μM). The reaction mixture was then shaken gently at room temperature for 60 minutes, shielded from light in order to incorporate fura-2 into the HL60 cells. Subsequently, the cells were washed twice with a Hepes-Na solution and a cell suspension was prepared at a final cell density of 1.0×10^6 cells/ml. One milliliter of the cell suspension was put into reaction cuvettes and stimulated with various samples under stirring at 30° C. Ratios of fluorescence intensity at 500 nm (F) for an excitation wavelength at 340 nm to that at 380 nm were measured with a fluorimeter (CAF-100, Japan Spectroscopic Co., Ltd.) and [Ca^2+]i was calculated following the formula: [Ca^2+]i(nM)=K×{(F−Fmin)/(Fmax−F)}×A/B, wherein
Fmax: a ratio of fluorescence intensity at 500 nm for an excitation wavelength at 340 nm to that at 380 nm after all cells were solubilized with 0.1% Triton X-100;
Fmin: a ratio of fluorescence intensity at 500-nm for an excitation wavelength at 340 nm to that at 380 nm after the whole calcium was chelated with 4 mM EGTA;
A: fluorescence intensity at 500-nm for an excitation wavelength at 380 nm, when all the calcium was chelated with EGTA;
B: fluorescence intensity at 500-nm for an excitation wavelength at 380 nm, when all cells were solubilized with Triton X-100;
K: 224 (nM) (the dissociation constant of fura-2).

| Molecule | β-HA secretion to the undifferentiated HL60 cells (HL60 cells [1]) | EC50 (HL60 cells [2]; 24 h) [nM] | EC50 (HL60 cells [2]; 48 h) [nM] | EC50 (HL60 cells [2]; 72 h) [nM] | Max. (%/total), maximum secretion on average (HL60 cells [2]; Differentiation 24 hr) [%/total] | Max. (%/total), maximum secretion on average (HL60 cells [2]; Differentiation 48 hr) [%/total] | Max. (%/total), maximum secretion on average (HL60 cells [2]; Differentiation 72 hr) [%/total] | activity for migration at the concentrations where β-HA secretion was observed ([3]; Example 12) | concentrations of migration activity relative to the concentration for β-HA secretion ([3]; Example 12) | β-HA secretion from neutrophil cells (%/total) (human neutrophils) | secretion of β-HA from human neutrophils (human neutrophils) [%] | intracellular Ca2+ concentration [4] | migration promoting (attracting) activity [3] |
| --- | --- | --- | --- | --- | --- | --- | --- | --- | --- | --- | --- | --- | --- |
| CSCC[C@H](NC=O)C(=O)N[C@@H](CC(C)C)C(=O)N[C@@H](Cc1ccccc1)C(=O)O [fMLP, formyl methionyl-leucyl-phenylalanine, reference compound] | Neither COSP-1 nor fMLP caused the β-HA secretion | 110 | 22 | 9.3 | 17.4 | 40.6 | 48.4 | also observed | observed at concentrations lower | 68.3 | 68.3 | did not increase |  |
| LSFLIPAGWVLSHLDHYKRSSAA-OH [COSP-1] | Neither COSP-1 nor fMLP caused the β-HA secretion | 1200 | 450 | 270 | 15.6 | 35.7 | 45.3 |  |  | 40.5 | 40.5 | did not increase | attracting activity |
